Laboratory results as given in ChEMBL document CHEMBL1201862, “PubChem BioAssay data set” (2004).
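Dose response: 5 concentrations. Exposure: 48 h. Format: 96-well plates. Endpoint: linear interpolation; highest concentration if not reached. At the GI50, growth is halved.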 Calls of active or inactive are those of the source. No stated cut-off is given here; in the data, active = GI50 up to about 1.1 µM and inactive = higher.

Tests used:
Assay in all cases: growth of human tumour cells (NCI), 48 h
[1] = tested on: HCT-116
[2] = tested on: OVCAR-4
[3] = tested on: CCRF-CEM
[4] = tested on: LOX IMVI
[5] = tested on: OVCAR-5
[6] = tested on: SF-539
[7] = tested on: UACC-62
[8] = tested on: UACC-257
[9] = tested on: TK-10
[10] = tested on: SK-MEL-28
[11] = tested on: IGROV-1
[12] = tested on: A549
[13] = tested on: Hs-578T
[14] = tested on: Malme-3M
[15] = tested on: HOP-92
[16] = tested on: SK-MEL-5
[17] = tested on: SN12C
[18] = tested on: SR
[19] = tested on: EKVX
[20] = tested on: MCF7
[21] = tested on: NCI/ADR-RES
[22] = tested on: PC-3
[23] = tested on: RXF 393
[24] = tested on: MOLT-4
[25] = tested on: K562
[26] = tested on: A498
[27] = tested on: NCI-H23
[28] = tested on: CAKI-1
[29] = tested on: KM12
[30] = tested on: COLO 205
[31] = tested on: U-251
[32] = tested on: SF-295
[33] = tested on: ACHN
[34] = tested on: SK-OV-3
[35] = tested on: OVCAR-3
[36] = tested on: BT-549
[37] = tested on: NCI-H226
[38] = tested on: SNB-19
[39] = tested on: M14
[40] = tested on: HL-60
[41] = tested on: HT-29
[42] = tested on: 786-0
[43] = tested on: HCT-15
[44] = tested on: MDA-MB-231
[45] = tested on: OVCAR-8
[46] = tested on: HCC 2998
[47] = tested on: NCI-H460
[48] = tested on: HOP-62
[49] = tested on: MDA-N
[50] = tested on: SW-620
[51] = tested on: SK-MEL-2
[52] = tested on: SNB-75
[53] = tested on: UO-31
[54] = tested on: MDA-MB-435
[55] = tested on: RPMI-8226
[56] = tested on: NCI-H522
[57] = tested on: T47D
[58] = tested on: SF-268

Measured: GI50

CCOC(=O)N(NC(=O)NC(C)C)c1ccccc1
inactive: [1] > 100 µM | [2] > 100 µM | [3] > 100 µM | [4] > 100 µM | [5] > 100 µM | [6] > 100 µM | [7] > 100 µM | [8] > 100 µM | [9] > 100 µM | [10] > 100 µM | [11] > 100 µM | [12] > 100 µM | [13] > 100 µM | [14] > 100 µM | [15] > 100 µM | [16] > 100 µM | [17] > 100 µM | [18] > 100 µM | [19] > 100 µM | [20] > 100 µM | [21] > 100 µM | [22] > 100 µM | [23] > 100 µM | [24] > 100 µM | [25] > 100 µM | [26] > 100 µM | [27] > 100 µM | [28] > 100 µM | [29] > 100 µM | [30] > 100 µM | [31] > 100 µM | [32] > 100 µM | [33] > 100 µM | [34] > 100 µM | [35] > 100 µM | [36] > 100 µM | [37] > 100 µM | [38] > 100 µM | [39] > 100 µM | [40] 60.1 µM | [41] > 100 µM | [42] > 100 µM | [44] > 100 µM | [45] > 100 µM | [46] 84.1 µM | [47] > 100 µM | [48] > 100 µM | [49] > 100 µM | [50] > 100 µM | [51] > 100 µM | [52] > 100 µM | [53] > 100 µM
> 100 µM: [43]

CC1Cn2c(nc3ccccc32)NC1=O (stereo not drawn)
inactive: [1] > 100 µM | [2] > 100 µM | [3] > 100 µM | [4] > 100 µM | [5] > 100 µM | [6] > 100 µM | [7] > 100 µM | [8] > 100 µM | [9] > 100 µM | [11] > 100 µM | [12] > 100 µM | [13] > 100 µM | [14] 58.2 µM | [15] > 100 µM | [16] > 100 µM | [18] > 100 µM | [19] > 100 µM | [54] > 100 µM | [20] > 100 µM | [21] > 100 µM | [22] > 100 µM | [23] > 100 µM | [24] > 100 µM | [25] > 100 µM | [26] > 100 µM | [27] > 100 µM | [28] > 100 µM | [29] > 100 µM | [30] > 100 µM | [55] > 100 µM | [56] > 100 µM | [31] > 100 µM | [32] > 100 µM | [33] > 100 µM | [34] > 100 µM | [35] > 100 µM | [36] > 100 µM | [37] > 100 µM | [38] > 100 µM | [39] > 100 µM | [40] > 100 µM | [41] > 100 µM | [57] > 100 µM | [42] > 100 µM | [44] > 100 µM | [45] > 100 µM | [47] > 100 µM | [58] > 100 µM | [48] > 100 µM | [49] > 100 µM | [50] > 100 µM | [51] > 100 µM | [52] > 100 µM | [53] > 100 µM
> 100 µM: [43]
